# Several values for one entry are separate records, joined by “and”; a condition that tells them apart may be missing. Identical values can stand only once. Like-named read-outs stand apart in the source and are kept apart here.
# Key:
# C. neoformans H99 [1] = experiment: Broth microdilution antifungal assay (MIC) in RPMI or urea medium; assay type: cell-based; details: Cryptococcus neoformans
# Method: (§1) C. neoformans H99 (or ATCC 208821), a standard strain, was used to evaluate the antifungal activity of BSU1-BSU11 and BTU1-BTU11 compounds using the broth microdilution method. The assay was performed in two different culture media: the standard medium RPMI 1640 buffered with […] (RMPI), and the Christensen broth (urea medium: 1 g/L peptone, 1 g/L dextrose, 5 g/L sodium chloride, 2 g/L potassium phosphate, 20 g/L urea, 12 mg/L phenol red, pH 7.0). The compounds were dissolved in dimethyl sulfoxide (DMSO) and diluted in both media, obtaining final concentrations from 0.03 to 128 mg/L in a 96-well plate and final DMSO concentration below 0.5%, considered nontoxic. For assay, yeasts were distributed in each well to obtain a final inoculum of 0.5–2.5 × 10^3 CFU/mL, and the plate was incubated at 35 °C for 48 h.
# (§2) The MIC values were determined in both media and were defined as the lowest concentrations of BSU1-BSU11 and BTU1-BTU11 that inhibited 50% of fungal growth visually compared with untreated yeasts (growth control). In addition, the urease activity was indicated by medium color change from orange to pink due to ammonia production and the MICure was defined as the lowest concentration that inhibited the urease activity by visual inspection in urea medium with no color changes. For both assays, two controls were included: untreated yeast group for observation of fungal growth pattern or intracellular urease activity, and wells containing only medium for assay sterility control.
# yeast urease activity = biological target: T1, yeast urease activity (Cryptococcus neoformans, UniProt O13465); experiment: Inhibition of yeast urease activity in urea (Christensen) medium, colour change (MICure); assay type: cell-based
# T1 construct: endogenous in cells; host or cells: Cryptococcus neoformans H99 (ATCC 208821) yeasts in Christensen urea broth
# Method: The inhibitory activity against yeast urease was assessed using Christensen’s medium, which contains urea to induce URE1 gene expression. […] Even in the presence of fungal growth, inhibition of urease activity was evidenced by the absence of medium color change, indicating suppressed ammonia production.
# as §1, §2
# C. neoformans H99 [2] = experiment: Minimum fungicidal concentration by subculturing after MIC reading; assay type: cell-based; details: Cryptococcus neoformans
# Method: After MIC readings, the MFC values were determined by subculturing, at 35 °C for 48 h, of all concentrations that inhibited the fungal growth; and then MFC was defined as the lowest concentration of the compound capable of reducing ≥99% viability of the initial fungal inoculum. ,
# C. neoformans urease = biological target: T2, C. neoformans urease (Cryptococcus neoformans, UniProt O13465); experiment: Urease activity in crude protein extract, indophenol method; assay type: biochemical; details: ureIC50, BSU series
# T2 construct: endogenous in cells; host or cells: Cryptococcus neoformans H99, lysed by sonication; dialysed and lyophilised soluble fraction (total protein)
# Method: C. neoformans H99 yeasts were cultivated in 100 mL of Christensen broth for 72 h at 35 °C by shaking at 200 rpm for the obtention of urease as previously described. Briefly, the yeasts were ruptured using a lysis buffer (40 mM Tris-HCl, 20 mM dithiothreitol, 4% Triton X-100, 1 mM ethylenediaminetetraacetic acid, 2 mM phenylmethylsulfonyl fluoride, protease inhibitor cocktail) and an ultrasonic sonicator. After centrifugation, the soluble fraction was dialyzed in a dialysis membrane submerged in 10 mM sodium phosphate buffer, pH 7.0; the sample was lyophilized and stored at −20 °C. Before the assay, the sample was resuspended in 1 mL of sodium phosphate buffer (10 mM, pH 7.0), and the total protein was quantified by the Bradford method.
# The urease activity was determined by the indophenol method. In a 96-well microplate, 10 μL of 100 mM urea was added to 45 μL of total protein and 45 μL of BSU1-BSU11 (concentrations of 0.06–1000 μg/L) in phosphate buffer. The reaction was maintained for 10 min under shaking at 600 rpm, at room temperature. Then, 45 μL of solution A (1% phenol; 0.005% sodium nitroprusside) and 70 μL of solution B (0.5% sodium hydroxide; 0.1% sodium hypochlorite) were immediately added to the wells in the dark and incubated for 5 min at 50 °C under shaking at 600 rpm. Urease activity was quantified by measuring absorbance at 670 nm. The inhibitory concentration capable of inhibiting 50% of urease activity (ureIC50) was determined by nonlinear regression calculation using the GraphPad Prism 5.0 software.
# [3] = H99, Table S1, RPMI medium, C. neoformans H99, read-out: MIC
# [4] = H99, Table S1, urea medium, C. neoformans H99, read-out: MIC
# [5] = BSU series, 100% inhibition of yeast urease activity in urea medium
# [6] = Table S1, urea medium, 100% inhibition of yeast urease activity
# [7] = H99, Table S1, RPMI medium line, read-out: MFC
# [8] = H99, Table S1, urea medium line, read-out: MFC
# [9] = H99, 48 h, read-out: MIC RPMI, BSU series, 50% inhibition of fungal growth, RPMI medium, 35 °C, 48 h
# [10] = H99, 48 h, read-out: MIC urea, BSU series, 50% inhibition of fungal growth, urea medium, 35 °C, 48 h
# [11] = H99, Table S1, RPMI medium, C. neoformans H99
# [12] = H99, Table S1, urea medium, C. neoformans H99
# [13] = H99, BSU series, after assay in RPMI medium, ≥99% reduction of viability
# [14] = H99, Table S1, RPMI medium line
# [15] = H99, Table S1, urea medium line
# [16] = H99, BTU series, 50% inhibition of fungal growth, RPMI medium, read-out: MIC RPMI
# [17] = H99, BTU series, 50% inhibition of fungal growth, urea medium, read-out: MIC urea
# [18] = BTU series, 100% inhibition of yeast urease activity in urea medium
# [19] = H99, BTU series, after assay in RPMI medium, read-out: MFC
# [20] = H99, read-out: MIC RPMI, BTU series, 50% inhibition of fungal growth, RPMI medium
# [21] = H99, read-out: MIC urea, BTU series, 50% inhibition of fungal growth, urea medium
# [22] = H99, BTU series, after assay in RPMI medium
# T2 sequence (O13465 whole entry): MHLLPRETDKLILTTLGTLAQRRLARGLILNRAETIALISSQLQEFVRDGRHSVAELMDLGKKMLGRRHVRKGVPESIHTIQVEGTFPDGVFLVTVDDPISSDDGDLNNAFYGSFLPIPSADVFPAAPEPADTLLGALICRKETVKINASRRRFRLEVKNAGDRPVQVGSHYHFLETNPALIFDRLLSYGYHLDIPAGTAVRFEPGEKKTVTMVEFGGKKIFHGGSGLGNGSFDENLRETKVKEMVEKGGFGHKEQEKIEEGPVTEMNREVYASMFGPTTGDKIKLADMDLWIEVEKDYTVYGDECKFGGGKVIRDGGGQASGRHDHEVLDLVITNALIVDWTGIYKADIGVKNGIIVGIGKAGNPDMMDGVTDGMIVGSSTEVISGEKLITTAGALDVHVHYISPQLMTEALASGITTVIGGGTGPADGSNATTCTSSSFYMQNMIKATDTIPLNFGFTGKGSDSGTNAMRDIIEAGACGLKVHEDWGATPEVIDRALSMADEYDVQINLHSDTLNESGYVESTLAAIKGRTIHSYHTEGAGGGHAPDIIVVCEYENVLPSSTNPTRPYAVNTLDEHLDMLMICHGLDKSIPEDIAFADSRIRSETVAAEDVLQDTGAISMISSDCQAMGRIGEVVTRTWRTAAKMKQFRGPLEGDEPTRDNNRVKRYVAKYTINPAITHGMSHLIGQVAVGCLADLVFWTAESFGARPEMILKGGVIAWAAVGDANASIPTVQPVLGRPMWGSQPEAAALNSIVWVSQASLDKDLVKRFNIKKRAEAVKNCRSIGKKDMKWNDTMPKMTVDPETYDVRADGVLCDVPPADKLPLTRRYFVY
# T1 sequence (O13465 whole entry): as above
SMILES,MIC (C. neoformans H99 [1]; [3]) [µg/mL],MIC (C. neoformans H99 [1]; [4]) [µg/mL],MICURE (yeast urease activity; [5]) [mg/L],MICURE (yeast urease activity; [6]) [mg/L],MFC (C. neoformans H99 [2]; [7]) [µg/mL],MFC (C. neoformans H99 [2]; [8]) [µg/mL],IC50 (C. neoformans urease),MIC (C. neoformans H99 [1]; [9]) [µg/mL],MIC (C. neoformans H99 [1]; [10]) [µg/mL],MIC (C. neoformans H99 [1]; [11]) [µg/mL],MIC (C. neoformans H99 [1]; [12]) [µg/mL],MFC (C. neoformans H99 [2]; [13]) [µg/mL],MFC (C. neoformans H99 [2]; [14]) [µg/mL],MFC (C. neoformans H99 [2]; [15]) [µg/mL],MIC (C. neoformans H99 [1]; [16]) [µg/mL],MIC (C. neoformans H99 [1]; [17]) [µg/mL],MICURE (yeast urease activity; [18]) [mg/L],MFC (C. neoformans H99 [2]; [19]) [µg/mL],other results
O=C(NC(=[Se])Nc1ccccc1)c1ccccc1 [BSU1],2,0.06,0.06,0.06,2,0.12,4.88 nM,,,,,,,,,,,,"MIC (C. neoformans H99 [1]; H99, 48 h, BSU series, 50% inhibition of fungal growth, RPMI medium, 35 °C, 48 h, read-out: MIC RPMI): 2 µg/mL; MIC (C. neoformans H99 [1]; H99, 48 h, BSU series, 50% inhibition of fungal growth, urea medium, 35 °C, 48 h, read-out: MIC urea): 0.06 µg/mL; MFC (C. neoformans H99 [2]; H99, BSU series, after assay in RPMI medium, ≥99% reduction of viability, read-out: MFC): 2 µg/mL"
Cc1ccc(NC(=[Se])NC(=O)c2ccccc2)cc1 [BSU2],,,0.5,0.5,,,1.07 nM,16,0.5,16,0.5,16,16,1,,,,,
CC(C)(C)c1ccc(NC(=[Se])NC(=O)c2ccccc2)cc1 [BSU3],,,,16,,,0.95 nM and 0.946 nM,> 128,> 128,> 16,16,> 128,> 16,> 16,,,,,
COc1ccccc1NC(=[Se])NC(=O)c1ccccc1 [BSU4],,,0.5,0.25,,,2.33 nM and 2.34 nM,8,0.5,16,0.5,8,16,0.5,,,,,
COc1cccc(NC(=[Se])NC(=O)c2ccccc2)c1 [BSU5],,,0.12,0.12,,,14 nM,1,0.12,8,0.25,1,16,0.25,,,,,
O=C(NC(=[Se])Nc1ccc(Cl)cc1)c1ccccc1 [BSU6],,,0.25,8,,,3.02 nM,16,0.5,> 16,8,16,> 16,16,,,,,
O=C(NC(=[Se])Nc1cccc(Cl)c1)c1ccccc1 [BSU7],,,0.12,0.06,,,7.59 nM and 7.58 nM,8,0.25,4,0.12,16,4,0.25,,,,,
O=C(NC(=[Se])Nc1ccc(Br)cc1)c1ccccc1 [BSU8],,,8,0.5,,,4.04 nM and 4.03 nM,128,8,8,0.5,> 128,8,0.5,,,,,
O=C(NC(=S)Nc1ccccc1)c1ccccc1 [BTU1],> 128,32,,32,> 128,128,,,,,,,,,> 128,32,32,> 128,
Cc1ccc(NC(=S)NC(=O)c2ccccc2)cc1 [BTU2],> 128,32,,≤ 0.25,> 128,> 128,,,,,,,,,> 128,32,<0.25,> 128,
CC(C)(C)c1ccc(NC(=S)NC(=O)c2ccccc2)cc1 [BTU3],8,1,,0.5,> 128,128,,,,,,,,,8,1,0.5,> 128,
COc1ccccc1NC(=S)NC(=O)c1ccccc1 [BTU4],> 128,1,,≤ 0.25,> 128,> 128,,,,,,,,,> 128,64,32,> 128,
COc1cccc(NC(=S)NC(=O)c2ccccc2)c1 [BTU5],> 128,4,,≤ 0.25,> 128,> 128,,,,,,,,,32,4,4,> 128,
O=C(NC(=S)Nc1ccc(Cl)cc1)c1ccccc1 [BTU6],> 128,32,,≤ 0.25,> 128,128,,,,,,,,,> 128,1,<0.25,> 128,
O=C(NC(=S)Nc1cccc(Cl)c1)c1ccccc1 [BTU7],> 128,32,,2,> 128,64,,,,,,,,,> 128,4,<0.25,> 128,
O=C(NC(=S)Nc1ccc(Br)cc1)c1ccccc1 [BTU8],> 128,64,,32,> 128,> 128,,,,,,,,,> 128,32,<0.25,> 128,
O=C(NC(=S)Nc1cccc(Br)c1)c1ccccc1 [BTU9],32,4,,4,> 128,32,,,,,,,,,> 128,32,2,> 128,
O=C(NC(=S)Nc1ccccc1[N+](=O)[O-])c1ccccc1 [BTU10],,,,> 128,,,,,,> 128,> 128,,> 128,> 128,,,>128,,MIC (C. neoformans H99 [1]; [20]): > 128 µg/mL; MIC (C. neoformans H99 [1]; [21]): > 128 µg/mL; MFC (C. neoformans H99 [2]; [22]): > 128 µg/mL
O=C(NC(=S)Nc1cccc([N+](=O)[O-])c1)c1ccccc1 [BTU11],,,,> 128,,,,,,> 128,> 128,,> 128,> 128,,,>128,,MIC (C. neoformans H99 [1]; [20]): > 128 µg/mL; MIC (C. neoformans H99 [1]; [21]): > 128 µg/mL; MFC (C. neoformans H99 [2]; [22]): > 128 µg/mL

# — article PMC12461339, “Benzoylselenoureas: A Novel Dual-Action Inhibitor Targeting Fungal Growth and Urease Activity in Cryptococcus neoformans” (ACS Omega, 2025)
